Measurements published in publication PMC7355430, “Imunofan—RDKVYR Peptide—Stimulates Skin Cell Proliferation and Promotes Tissue Repair” (Molecules, 2020).
“And” between values parts separate entries of the source, which are not always exact repeats. Equal values may be shown once. Peptide text beside a SMILES is read from it.

What was measured:
ASCs from donor 6 = test: RNA sequencing with ingenuity pathway analysis (IPA); type: cell-based, human; details: ASCs donor 6, 0.1 µg/mL IM
Method: Cell stimulation was performed as previously described. Primary fibroblasts after the third passage and ASCs after the second passage were cultured in appropriate DMEM medium supplemented with 10% FBS for 24 h. Then, the medium was changed for DMEM with 5% FBS and 24-h incubation was performed. After another medium change for serum-free, cells were stimulated with IM peptide (0.1 µg/mL) for 48 h. Cell cultures deprived of FBS for 48 h were used as a control. After stimulation, the cells were trypsinized, collected, and centrifuged, and the pellet was kept frozen (−80 °C) for transcriptome analysis and transcript level analysis.
For three plastic surgery donors (donor 6, donor 11, and donor 12) ASCs (3–4.5 × 10^5 cells) after passage P2, namely cultures stimulated for 48 h with 0.1 µg/mL IM, or control cultured with FBS-deprived medium, were trypsinized, washed, and snap frozen for transcriptome analysis (see Supplementary Table S5 for clinical information). The pellets were stored at −80 °C prior to RNA isolation. RNA was isolated using a miRNeasy Mini Kit (Qiagen, Hilden, Germany) with two modifications of the original protocol: (i) chloroform was substituted with 1-bromo-3-chloropropane to prevent foaming and emulsification, and (ii) the elution was done with 40 µl of water followed by another elution with the entire volume of the original eluate. The quality and concentration of RNA was assessed using a Bioanalyzer 2100 Instrument and RNA 6000 Nano Kit (Agilent, Waldbronn, Germany). The average RNA yield was 2 µg. Samples with RIN (RNA Integrity Number) >8.0 were used for further transcriptome analysis.
A ribosome reduction kit (Arraystar Inc, Rockville, MD, USA) and SureSelect Strand Specific mRNA library kit (Agilent, Santa Clara, CA, USA) were used for next generation sequencing (NGS) library preparation according to standard procedures. The cDNA libraries were quantitated using qPCR in a Roche LightCycler 480 with the Kapa Library Quantification Kit for Illumina platforms (Kapa Biosystems, Woburn, MA, USA). Onboard cluster generation and 50 nt paired end RNA sequencing were performed on an Illumina HiSeq2500 device using Rapid Run v2 sequencing chemistry and flow cells as recommended by the manufacturer (Illumina Inc., San Diego, CA, USA). Paired end 50 bp sequencing runs were completed and the data was converted to the FASTQ Sanger format. Trim Galore was used to remove residual adapter sequences from the reads (https://www.bioinformatics.babraham.ac.uk). Sequencing reads were aligned to the human reference genome assembly (hg19) using TopHat. Further analysis was performed according to workflow for Cufflinks version 2.2.0 and higher. Transcript assembly and estimation of the relative abundances were carried out with Cufflinks using the following settings: Quartile normalization method for the libraries, blind dispersion method for replicates, and biased correction using canonical hg19 as reference. Cuffmerge and Cuffquant were then performed, followed by final comparison analysis in Cuffdiff. […] Differentially expressed genes (DGE) were grouped in functional pathways using ingenuity pathway analysis (IPA Spring Release 2017, QIAGEN, Hilde, Germany) on a gene level, using RefSeq annotation.

C57BL/6 mice = test: Ear pinna injury, ear punch closure; type: in vivo, mouse
Method: Experiments were performed on 8–12 week-old female BALB/c (24 mice in total) and C57BL/6 mice (36 mice in total). All mice originated from the Centre for Experimental Medicine of the Medical University of Białystok, Poland, and were kept in the animal facility at the Nencki Institute of Experimental Biology throughout the course of the study. After delivery to the Nencki Institute animal facility, mice rested for at least two weeks for acclimatization before starting the experiment. Experiments were approved by the First Local Ethics Committee in Warsaw (permit No. 491/2013 and 542/2018). Animal experimentation was performed in accordance with EU directive 2010/63/EU, and all experiments were undertaken in such a way as to minimize discomfort and the number of animals used in the study.
Mice were placed individually in separate cages, weighed, and randomly divided into two groups within each mouse strain: The treatment group and the control group. Before the study all mice were randomly given numerical equivalents, and all experimenters performing further analysis were not aware of the experimental group and referred solely to those numbers. Similarly, vials containing IM (treatment) or saline (control) were encrypted and assigned to particular mice, so the person performing injections and ear photographs was not aware of mice background. Lastly, the person quantifying each ear hole closure was not aware of the group. Numerical equivalents of each mice were only decrypted at the end of the study. […]
To monitor the progress of wound healing, ears were photographed on the day of the injury (day 0, before and right after pinna injury), and on days 7, 14, 21, 28, 35, and 42. […] Finally, the area of the wound hole was outlined by hand on digitized images as an overlay, and the hole areas in the ears were evaluated using computer-assisted image analysis (ImageJ Software). […] The final number of analyzed ears was 23 per group on day 42. […] The final number of analyzed ears on day 42 was 32 in the control group and 16 in the treatment group.

[1] = 48 h vs FBS-deprived medium, IPA disease and function mode

CC(C)[C@H](NC(=O)[C@H](CCCCN)NC(=O)[C@H](CC(=O)O)NC(=O)[C@@H](N)CCCNC(=N)N)C(=O)N[C@@H](Cc1ccc(O)cc1)C(=O)N[C@@H](CCCNC(=N)N)C(=O)O [IM, H-Arg-Asp-Lys-Val-Tyr-Arg-OH] (H-RDKVYR-OH)
29.69: consistency score of the IPA regulatory network (ASCs from donor 6; 48 h, highest consistency score (Figure S10A))
Activation: Predicted Direction of Change: Activation of cells (ASCs from donor 6; [1]) | Predicted Direction of Change: Binding of neutrophils (ASCs from donor 6; [1]) | Predicted Direction of Change: Cell migration of granulocytes (ASCs from donor 6; [1]) | Predicted Direction of Change: Cell migration of neutrophils (ASCs from donor 6; [1]) | Predicted Direction of Change: Cell movements (ASCs from donor 6; [1]) | Predicted Direction of Change: Chemotaxis (ASCs from donor 6; [1]) | Predicted Direction of Change: Immune response (ASCs from donor 6; [1]) | Predicted Direction of Change: Migration of cells (ASCs from donor 6; [1]) | Predicted Direction of Change: Migration of endothelium cells (ASCs from donor 6; [1]) | Predicted Direction of Change: Permeability of endothelium cells (ASCs from donor 6; [1]) | Predicted Direction of Change: RNA transactivation (ASCs from donor 6; [1]) | Predicted Direction of Change: Secretion of lipids (ASCs from donor 6; [1]) | Predicted Direction of Change: Synthesis of fatty acids (ASCs from donor 6; [1]) | Predicted Direction of Change: Synthesis of nitric oxide (ASCs from donor 6; [1])
36%: tissue repair in comparison to control (C57BL/6 mice; C57BL/6, ear pinna injury, as summarised in the abstract)
1.67 ± 0.45 mm^2: mean ear hole area (C57BL/6 mice; C57BL/6, day 42 post-injury, 2 mm punch, s.c. 5.0 µg/g, 10 injections, mean ± SD, saline control 3.10 ± 0.74)
43.6% ± 13.9% and 44%: ear hole closure (C57BL/6 mice; C57BL/6, day 42 post-injury, s.c. 5.0 µg/g, 10 injections, mean ± SD, saline control 8.0% ± 36.8%)
